Laboratory results as given in patent US12187758B2 (ROME Therapeutics, Inc., priority 2022, dated 2025).

Experiments:
Format in all cases: cell-based
[1] = test system: SDH-A (succinate dehydrogenase-A); assay: Mitochondria toxicity assay with PC3 cells, in-cell ELISA SDH-A; details: 5 days treatment
Summary of the method: (§1)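 This in-cell ELISA was run on fixed, permeabilized PC3 cells after 5-day exposure to titrated compound, with cytotoxicity measured on a duplicate plate. Results are reported as categories A (<1.0 μM) to E (>100.0 μM).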

[2] = test system: PC3 cells; assay: Mitochondria toxicity assay with PC3 cells, cytotoxicity (Cell Titer Glo); details: Homo sapiens, PC-3, 120 h, 5 days treatment
Summary of the method: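 Cytotoxicity reported in μM bins, A <1.0 through E >100.0. Measured via Cell Titer Glo luminescence (30 min, room temperature) after 5-day dose-titration treatment of PC3 cells, grown in F-12K/10% FBS, at 37° C, 5% CO2.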

[3] = Mitochondria toxicity assay with PC3 cells, in-cell ELISA COX-1; details: 5 days treatment
Summary of the method: as §1

[4] = test system: 7S mitochondria DNA; assay: Mitochondria DNA assay with PC3 cells; details: Homo sapiens, PC-3, 120 h, 5 days, 7S mitochondria DNA level by qPCR relative to 18S or GAPDH
Experimental: Exemplary compounds were tested for their effect on levels of 7S mitochondria DNA, and the DNA of housekeeping genes 18S and GAPDH. Reduction of 7S mitochondria DNA indicates off-target inhibition of mitochondrial DNA synthesis, which leads to mitochondrial toxicity. Assay procedures and results are described below.
PC3 cells were purchased from ATCC and cultured in F-12 Kaighn's modified medium (Hyclone), 10% heat-inactivated fetal bovine serum (Gibco), 1% Penicillin-Streptomycin (Invitrogen). PC3 cells were treated with a dose titration of a test compound on 6 well plates for 5 days at 37° C., 5% CO2 in a humidified incubator.
Cells were harvested and mitochondria DNA extraction was performed using DNeasy Blood & Tissue Kit (Qiagen) according to the manufacture's instruction.
Mitochondria 7S and housekeeping genes 18S and GAPDH DNA was quantified by multiplex qPCR with the PowerUp™ SYBR™ Green system (Applied Biosystems). Prepare reaction mix consisting of 5 μl of 2× PowerUp™ SYBR™ Green Master Mix, 1 μl of 5 μM Primers for 7S, 18S, or GAPDH, 4 μl of DNA template from DNA extraction above. The primer sequences are below:
qPCR was performed on QuantStudio™ 7 Flex RealTime qPCR system (Applied Biosystems) as set forth below: • a. 50° C. for 2 minutes, then • b. 95° C. for 2 minutes, then • c. 95° C. for 15 seconds, then • d. 60° C. for 60 seconds, • where then steps (c) and (d) were repeated 60 times.
Threshold was calculated by QuantStudio™ 7 Flex Software (ThermoFisher Scientific) using the default settings. Ct values were used to evaluate the relative mitochondria DNA (mtDNA) level using the following formula: ΔCt=Ct (7S target gene)−Ct (18S) or ΔCt=Ct (7S target gene)−Ct (GAPDH). Relative mtDNA level=2^−Δct. Expression fold over DMSO control=2^−Δct (compound treated group)/2^−Δct (DMSO group)
In the table “A” represents values≤0.1 μM; “B” represents values from >0.1 μM to ≤1.0 μM; “C” represents values from >1.0 μM to ≤10.0 μM; “D” represents values from >10.0 μM to ≤100.0 μM; and “E” represents values>100.0 μM.

Row | IC50 [4] [µM] | Structure (SMILES) | IC50 [1] [µM] | IC50 [2] [µM] | IC50 [3] [µM]
1 |  | C[C@@H]1[C@H](n2ccc(N)nc2=O)O[C@@](CO)(CCl)[C@H]1O [Compound 12, 4-amino-1-((2R,3S,4S,5R)-5-(chloromethyl)-4-hydroxy-5-(hydroxymethyl)-3-methyltetrahydrofuran-2-yl)pyrimidin-2(1H)-one] | > 100 | > 100 | > 100
2 |  | CO[C@@H]1[C@H](n2ccc(N)nc2=O)O[C@@](CO)(CCl)[C@H]1O [Compound 13, 4-amino-1-((2R,3S,4S,5R)-5-(chloromethyl)-4-hydroxy-5-(hydroxymethyl)-3-methoxytetrahydrofuran-2-yl)pyrimidin-2(1H)-one] | > 100 | > 100 | > 100
3 | ≤ 0.1 | Nc1nc(=O)n([C@H]2C[C@H](O)[C@](CO)(CCl)O2)cc1F [Compound 14, 4-amino-1-((2R,4S,5R)-5-(chloromethyl)-4-hydroxy-5-(hydroxymethyl)tetrahydrofuran-2-yl)-5-fluoropyrimidin-2(1H)-one] | > 100 | > 100 | > 100
4 |  | Nc1ncnc2c1ncn2[C@H]1C[C@H](O)[C@](CO)(CCl)O1 [Compound 15, (2R,3S,5R)-5-(6-amino-9H-purin-9-yl)-2-(chloromethyl)-2-(hydroxymethyl)tetrahydrofuran-3-ol] | > 100 | > 100 | > 100
5 |  | Nc1ccn([C@H]2C[C@H](O)[C@](CO)(C3CC3)O2)c(=O)n1 [Compound 16, 4-amino-1-((2R,4S,5R)-5-cyclopropyl-4-hydroxy-5-(hydroxymethyl)tetrahydrofuran-2-yl)pyrimidin-2(1H)-one] | > 100 | > 100 | > 100
6 |  | C[C@@H]1[C@H](n2ccc(N)nc2=O)O[C@](C)(CO)[C@H]1O [Compound 19, 4-amino-1-((2R,3S,4S,5R)-4-hydroxy-5-(hydroxymethyl)-3,5-dimethyltetrahydrofuran-2-yl)pyrimidin-2(1H)-one] | 10 to 50 | 50 to 100 | 10 to 50
7 | > 100 | CC[C@]1(CO)O[C@@H](n2ccc(N)nc2=O)C[C@@H]1O [Compound 44, 4-amino-1-((2R,4S,5R)-5-ethyl-4-hydroxy-5-(hydroxymethyl)tetrahydrofuran-2-yl)pyrimidin-2(1H)-one] | > 100 | > 100 | > 100
8 |  | CC[C@]1(CO)O[C@@H](n2ccc(N)nc2=O)[C@@H](F)[C@@H]1O [Compound 51, 4-amino-1-((2R,3S,4R,5R)-5-ethyl-3-fluoro-4-hydroxy-5-(hydroxymethyl)tetrahydrofuran-2-yl)pyrimidin-2(1H)-one] | > 100 | > 100 | 10 to 50
9 | > 100 | [N-]=[N+]=N[C@]1(CO)O[C@@H](n2cc(F)c(N)nc2=O)C[C@@H]1O [Compound 61, 4-amino-1-((2R,4S,5R)-5-azido-4-hydroxy-5-(hydroxymethyl)tetrahydrofuran-2-yl)-5-fluoropyrimidin-2(1H)-one] | > 100 | > 100 | > 100
10 | > 100 | Nc1nc(=O)n([C@@H]2O[C@@](CO)(CCl)[C@@H](O)[C@@H]2F)cc1F [Compound 67, 4-amino-1-[(2R,3S,4R,5R)-5-(chloromethyl)-3-fluoro-4-hydroxy-5-(hydroxymethyl)oxolan-2-yl]-5-fluoropyrimidin-2-one] | > 100 | > 100 | > 100
11 |  | Nc1nc(=O)n([C@@H]2O[C@@](CO)(CF)[C@@H](O)[C@@H]2O)cc1F [Compound 72, 4-amino-5-fluoro-1-((2R,3S,4S,5R)-5-(fluoromethyl)-3,4-dihydroxy-5-(hydroxymethyl)tetrahydrofuran-2-yl)pyrimidin-2(1H)-one] | > 100 | 50 to 100 | 50 to 100
12 |  | Nc1nc(=O)n([C@@H]2O[C@@](CO)(CF)[C@@H](O)[C@@H]2F)cc1F [Compound 85, 4-amino-5-fluoro-1-[(2R,3S,4R,5R)-3-fluoro-5-(fluoromethyl)-4-hydroxy-5-(hydroxymethyl)oxolan-2-yl] pyrimidin-2-one] | > 100 | > 100 | > 100
13 | ≤ 0.1 | Nc1nc(=O)n([C@H]2C[C@H](O)[C@](CO)(CBr)O2)cc1F [Compound 88, 4-amino-1-((2R,4S,5R)-5-(bromomethyl)-4-hydroxy-5-(hydroxymethyl)tetrahydrofuran-2-yl)-5-fluoropyrimidin-2(1H)-one] | > 100 | > 100 | 10 to 50

Row | Structure (SMILES) | IC50 [4] [µM] | IC50 [1] [µM] | IC50 [2] [µM] | IC50 [3] [µM]
14 | Nc1ccn([C@H]2C[C@H](O)[C@](CO)(CCl)O2)c(=O)n1 [Compound 2, 4-amino-1-((2R,4S,5R)-5-(chloromethyl)-4-hydroxy-5-(hydroxymethyl)tetrahydrofuran-2-yl)pyrimidin-2(1H)-one] | ≤ 0.1 | > 100 | > 100 | < 1
15 | C#C[C@]1(CO)O[C@@H](n2cnc3c(N)nc(Cl)nc32)C[C@@H]1O [Compound 25] | > 100 | > 100 | > 100 | 50 to 100
16 | Nc1ccn([C@@H]2O[C@@](CO)(CCl)[C@@H](O)[C@@H]2F)c(=O)n1 [Compound 40, 4-amino-1-((2R,3S,4R,5R)-5-(chloromethyl)-3-fluoro-4-hydroxy-5-(hydroxymethyl)tetrahydrofuran-2-yl)pyrimidin-2(1H)-one] | > 100 | > 100 | > 100 | > 100
